The target in the test is T1, LXRβ (Homo sapiens, UniProt P55055).
T1 construct: Co-transfection expression plasmids, comprising full-length LXRα (pCMX-h LXRα[…] or LXRβ (pCMX-hLXRβ)); expressed in transfected cells; host or cells: CV-1 African Green Monkey Kidney Cells
T1 sequence (P55055 1-460): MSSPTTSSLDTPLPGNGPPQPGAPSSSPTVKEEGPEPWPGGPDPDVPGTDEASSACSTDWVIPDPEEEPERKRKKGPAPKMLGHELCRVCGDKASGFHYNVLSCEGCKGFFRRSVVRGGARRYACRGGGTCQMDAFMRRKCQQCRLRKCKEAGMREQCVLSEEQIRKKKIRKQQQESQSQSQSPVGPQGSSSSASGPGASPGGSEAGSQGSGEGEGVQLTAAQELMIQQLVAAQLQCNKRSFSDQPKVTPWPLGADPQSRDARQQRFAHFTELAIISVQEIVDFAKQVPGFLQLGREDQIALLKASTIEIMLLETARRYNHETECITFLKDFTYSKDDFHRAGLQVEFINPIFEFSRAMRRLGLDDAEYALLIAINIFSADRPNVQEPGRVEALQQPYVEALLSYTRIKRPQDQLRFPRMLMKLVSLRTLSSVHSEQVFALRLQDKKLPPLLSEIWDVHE
T1 sequence (P19793 1-462 partner): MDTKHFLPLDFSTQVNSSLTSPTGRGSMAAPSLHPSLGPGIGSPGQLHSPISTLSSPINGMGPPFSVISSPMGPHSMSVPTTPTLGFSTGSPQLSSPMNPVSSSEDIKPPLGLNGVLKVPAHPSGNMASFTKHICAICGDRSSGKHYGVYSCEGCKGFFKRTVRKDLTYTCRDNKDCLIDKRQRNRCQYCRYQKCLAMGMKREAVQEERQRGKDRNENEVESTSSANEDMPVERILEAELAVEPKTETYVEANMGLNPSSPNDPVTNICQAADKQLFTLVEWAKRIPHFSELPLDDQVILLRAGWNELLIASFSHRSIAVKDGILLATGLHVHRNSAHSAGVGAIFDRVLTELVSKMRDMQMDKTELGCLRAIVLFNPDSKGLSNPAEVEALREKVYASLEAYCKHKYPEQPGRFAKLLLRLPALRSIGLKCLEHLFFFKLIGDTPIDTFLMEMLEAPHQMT
Put plainly: Co-transfection assay (LXRE luciferase reporter), LXRβ. The class given is cell-based. The note with it: for EC50: CV-1 cells transfected with pCMX-hLXRβ and LXREx1-Tk-Luciferase, 20 hours incubation; for Emax: LXRβ co-transfection, relative to high control 1-(2,4-difluorobenzyl)-2-oxo-6-(4-phenoxyphenyl)-4-(trifluoromethyl)-1,2-dihydropyridine-3-carbonitrile, read-out: % Efficacy. The essentials: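 CV-1 / pCMX-hLXRβ + LXREx1-Tk-Luc + β-gal; cpd 20 h, 37 °C, ≤0.5% DMSO; Steady-Glo luminescence. 11-pt ½-log curves, duplicate wells, sigmoidal fit → EC50; % efficacy vs high-control agonist, DMSO low control; mean of ≥2 expts.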

The structures appear in SMILES notation.

Turning to `Cc1nc(C(F)(F)F)cn1-c1ccc(-c2cccc(S(C)(=O)=O)c2)cc1-n1nncc1-c1ccc(Cl)c(F)c1` [Example 69, 5-(4-chloro-3-fluorophenyl)-1-{3′-(methylsulfonyl)-4-[2-methyl-4-(trifluoromethyl)-1H-imidazol-1-yl]biphenyl-3-yl}-1H-1,2,3-triazole], the EC50 stood at 341 nM and the Emax came out at 113%.

Take `Cc1nc(Cl)cn1-c1ccc(-c2cc(F)c(CO)c(S(C)(=O)=O)c2)cc1-n1nncc1-c1ccc(Cl)cc1` [Example 148, [4′-(4-chloro-2-methyl-1H-imidazol-1-yl)-3′-[5-(4-chlorophenyl)-1H-1,2,3-triazol-1-yl]-3-fluoro-5-(methylsulfonyl)biphenyl-4-yl]methanol]: the response was half-maximal at 447 nM (EC50) and the Emax was 42%.

`Cc1nc(-c2cc(-c3cc(F)c(CO)c(S(C)(=O)=O)c3)ccc2-n2cc(C(F)(F)F)nc2C)c(-c2ccc(OCC(F)F)c(F)c2)o1` [Example 426, (3′-(5-(4-(2,2-difluoroethoxy)-3-fluorophenyl)-2-methyloxazol-4-yl)-3-fluoro-4′-(2-methyl-4-(trifluoromethyl)-1H-imidazol-1-yl)-5-(methylsulfonyl)biphenyl-4-yl)methanol]: the EC50 turned out to be 118 nM and the Emax came out at 92%.

With `Cc1nc(-c2cc(-c3cc(F)c(CO)c(S(C)(=O)=O)c3)ccc2-n2cc(C(F)(F)F)nc2C)c(-c2cc(F)c(OC(F)F)c(F)c2)o1` [Example 457, (3′-(5-(4-(difluoromethoxy)-3,5-difluorophenyl)-2-methyloxazol-4-yl)-3-fluoro-4′-(2-methyl-4-(trifluoromethyl)-1H-imidazol-1-yl)-5-(methylsulfonyl)biphenyl-4-yl)methanol], the EC50 was found to be 58 nM and the Emax was found to be 76%.

With `Cc1nc(C(F)(F)F)cn1-c1ccc(-c2cccc(S(C)(=O)=O)c2)cc1-n1nncc1-c1ccc(OC(F)(F)F)c(Cl)c1` [Example 53, 5-{3-chloro-4-[(trifluoromethyl)oxy]phenyl}-1-{3′-(methylsulfonyl)-4-[2-methyl-4-(trifluoromethyl)-1H-imidazol-1-yl]biphenyl-3-yl}-1H-1,2,3-triazole], the midpoint of the response, the EC50, lay at 175 nM and the Emax was found to be 90%.

For the compound `C=Cc1nc(-c2cc(-c3cccc(S(C)(=O)=O)c3)ccc2-n2cc(C(F)(F)F)nc2C)c(-c2ccc3c(c2)OC(F)(F)O3)o1` [Example 532], it took 16 nM to reach a half-maximal effect (EC50) and the Emax is 89%.

With `Cc1nc(-c2cc(-c3cccc(C(=O)N(C)C)c3)ccc2-n2cc(C(F)(F)F)nc2C)c(-c2ccc(OC(F)F)c(F)c2)o1` [Example 442, 3′-(5-(4-(difluoromethoxy)-3-fluorophenyl)-2-methyloxazol-4-yl)-N,N-dimethyl-4′-(2-methyl-4-(trifluoromethyl)-1H-imidazol-1-yl)biphenyl-3-carboxamide], the EC50 is 729 nM and the Emax is 58%.

With `Cc1nc(C(F)(F)F)cn1-c1ccc(-c2cc(F)c(CO)c(S(C)(=O)=O)c2)cc1-c1nc(C(C)(C)CO)oc1-c1ccc(OC(F)(F)F)cc1` [Example 528, 2-(4-(3′-fluoro-4′-(hydroxymethyl)-4-(2-methyl-4-(trifluoromethyl)-1H-imidazol-1-yl)-5′-(meththsulfonyl)-[1,1′-biphenyl]-3-yl)-5-(4-(trifluoromethoxy)phenyl)oxazol-2-yl)-2-methylpropan-1-ol], a half-maximal response (EC50) required 133 nM and the Emax was determined as 20%.

`CS(=O)(=O)c1cc(-c2cc(F)c(-n3cnc(C(F)(F)F)c3)c(-n3nncc3-c3ccc(Cl)cc3Cl)c2)cc(F)c1CO` [Example 190, {3′-[5-(2,4-dichlorophenyl)-1H-1,2,3-triazol-1-yl]-3,5′-difluoro-5-(methylsulfonyl)-4′-[4-(trifluoromethyl)-1H-imidazol-1-yl]biphenyl-4-yl}methanol]: a half-maximal effect (EC50) was put at 208 nM and the Emax was found to be 119%.

Turning to `Cc1nc(-c2ccc(OC(F)(F)F)cc2O)c(-c2cc(-c3cccc(S(C)(=O)=O)c3)ccc2-n2cc(C(F)(F)F)nc2C)o1` [Example 626, 2-(2-methyl-5-(4-(2-methyl-4-(trifluoromethyl)-1H-imidazol-1-yl)-3′-(methylsulfonyl)-[1,1′-biphenyl]-3-yl)oxazol-4-yl)-5-(trifluoromethoxy)phenol], a half-maximal response (EC50) required 57 nM and the Emax is 62%.

For `Cc1nc(C(F)(F)F)cn1-c1ccc(-c2cccc(S(C)(=O)=O)c2)cc1-n1nncc1-c1cc(F)c(F)c(F)c1` [Example 71, 1-{3′-(methylsulfonyl)-4-[2-methyl-4-(trifluoromethyl)-1H-imidazol-1-yl]biphenyl-3-yl}-5-(3,4,5-trifluorophenyl)-1H-1,2,3-triazole], a half-maximal response (EC50) required 400 nM and the Emax is 105%.

With `Cc1nc(C(F)(F)F)cn1-c1ccc(-c2cccc(S(C)(=O)=O)c2)cc1-c1ccnn1-c1ccc2c(c1)OC(F)(F)O2` [Example 293, 1-(2,2-difluorobenzo[d][1,3]dioxol-5-yl)-5-(4-(2-methyl-4-(trifluoromethyl)-1H-imidazol-1-yl)-3′-(methylsulfonyl)biphenyl-3-yl)-1H-pyrazole], the EC50 was found to be 114 nM and the Emax turned out to be 97%.

Turning to `COc1cnc(-c2oc(C)nc2-c2cc(-c3cccc(S(C)(=O)=O)c3)ccc2-n2cc(C(F)(F)F)nc2C)cn1` [Example 412, 5-(5-methoxypyrazin-2-yl)-2-methyl-4-(4-(2-methyl-4-(trifluoromethyl)-1H-imidazol-1-yl)-3′-(methylsulfonyl)biphenyl-3-yl)oxazole], a half-maximal effect (EC50) was put at 518 nM and the Emax came out at 72%.

As for `CNS(=O)(=O)c1cccc(-c2ccc(-n3cc(C(F)(F)F)nc3C)c(-n3nncc3-c3ccc(OC(F)(F)F)cc3)c2)c1` [Example 213, N-methyl-4′-(2-methyl-4-(trifluoromethyl)-1H-imidazol-1-yl)-3′-(5-(4-(trifluoromethoxy)phenyl)-1H-1,2,3-triazol-1-yl)-[1,1′-biphenyl]-3-sulfonamide], a half-maximal response (EC50) required 94 nM and the Emax is 89%.

In the case of `Cc1nc(-c2cc(-c3cccc(S(C)(=O)=O)c3)ccc2-n2cc(Cl)nc2C)c(-c2ccc3c(c2)OC(F)(F)O3)o1` [Example 423, 4-(4-(4-chloro-2-methyl-1H-imidazol-1-yl)-3′-(methylsulfonyl)biphenyl-3-yl)-5-(2,2-difluorobenzo[d][1,3]dioxol-5-yl)-2-methyloxazole], the EC50 worked out at 61 nM and the Emax came to 74%.

On to `Cc1nc(-c2cc(-c3cc(F)c(CO)c(S(C)(=O)=O)c3)ccc2-n2cc(C(F)(F)F)nc2C)c(-c2cccnc2C)o1` [Example 395, (3-fluoro-4′-(2-methyl-4-(trifluoromethyl)-1H-imidazol-1-yl)-3′-(2-methyl-5-(2-methylpyridin-3-yl)oxazol-4-yl)-5-(methylsulfonyl)biphenyl-4-yl)methanol], for which the midpoint of the response, the EC50, lay at 1230 nM and the Emax amounted to 61%.

With `Cc1nc(-c2cc(-c3cc(F)c(CCO)c(S(C)(=O)=O)c3)ccc2-n2cc(C(F)(F)F)nc2C)c(-c2ccc(OC(F)(F)F)cc2)o1` [Example 529, 2-(3-fluoro-4′-(2-methyl-4-(trifluoromethyl)-1H-imidazol-1-yl)-3′-(2-methyl-5-(4-(trifluoromethoxy)phenyl)oxazol-4-yl)-5-(methylsulfonyl)-[1,1′-biphenyl]-4-yl)ethanol], the EC50 was 54 nM and the Emax came out at 101%.

The record behind these values is patent US9834542B2, “LXR modulators” (BRISTOL-MYERS SQUIBB COMPANY, priority 2013, dated 2017).
